Measurements reported in patent US8192962B2, “Processes for detecting toxic substances” (Daikin Industries, Ltd., priority 2001, dated 2012).

Test system: Genes belonging to other category
Assay: DNA chip mRNA expression in yeast, genes belonging to other category (Table 9)
Format: cell-based, Saccharomyces cerevisiae S288C
How it was run: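 Whole-genome yeast DNA chip hybridization (65° C., >12 h) of Cy-labeled cDNA from S288C cells exposed 2 h at 25° C. to a sub-lethal toxicant dose in YPD; value is intensity relative to chemical-free control.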

## CCCCCCCCCCCCOS(=O)(=O)[O-].[Na+] [(18), sodium lauryl sulfate]
Yeast gene YAR010C
  The level of expressed mRNA in the presence of chemical substance/The level of expressed mRNA in the absence of chemical substance: 1.0
Yeast gene YBL005W-A
  The level of expressed mRNA in the presence of chemical substance/The level of expressed mRNA in the absence of chemical substance: 1.0
Yeast gene YBL041W
  The level of expressed mRNA in the presence of chemical substance/The level of expressed mRNA in the absence of chemical substance: 2.0
Yeast gene YBL043W
  The level of expressed mRNA in the presence of chemical substance/The level of expressed mRNA in the absence of chemical substance: 1.8
Yeast gene YBL078C
  The level of expressed mRNA in the presence of chemical substance/The level of expressed mRNA in the absence of chemical substance: 2.8
Yeast gene YBL101C
  The level of expressed mRNA in the presence of chemical substance/The level of expressed mRNA in the absence of chemical substance: 1.1
Yeast gene YBL101W-A
  The level of expressed mRNA in the presence of chemical substance/The level of expressed mRNA in the absence of chemical substance: 1.2
Yeast gene YBR009C
  The level of expressed mRNA in the presence of chemical substance/The level of expressed mRNA in the absence of chemical substance: 2.4
Yeast gene YBR076W
  The level of expressed mRNA in the presence of chemical substance/The level of expressed mRNA in the absence of chemical substance: 1.2
Yeast gene YBR170C
  The level of expressed mRNA in the presence of chemical substance/The level of expressed mRNA in the absence of chemical substance: 1.4
Yeast gene YBR173C
  The level of expressed mRNA in the presence of chemical substance/The level of expressed mRNA in the absence of chemical substance: 1.6
Yeast gene YBR177C
  The level of expressed mRNA in the presence of chemical substance/The level of expressed mRNA in the absence of chemical substance: 0.9
Yeast gene YBR214W
  The level of expressed mRNA in the presence of chemical substance/The level of expressed mRNA in the absence of chemical substance: 1.2
Yeast gene YBR239C
  The level of expressed mRNA in the presence of chemical substance/The level of expressed mRNA in the absence of chemical substance: 0.9
Yeast gene YBR286W
  The level of expressed mRNA in the presence of chemical substance/The level of expressed mRNA in the absence of chemical substance: 1.6
Yeast gene YCL020W
  The level of expressed mRNA in the presence of chemical substance/The level of expressed mRNA in the absence of chemical substance: 1.3
Yeast gene YCL027W
  The level of expressed mRNA in the presence of chemical substance/The level of expressed mRNA in the absence of chemical substance: 0.8
Yeast gene YCR004C
  The level of expressed mRNA in the presence of chemical substance/The level of expressed mRNA in the absence of chemical substance: 3.5
Yeast gene YCR038C
  The level of expressed mRNA in the presence of chemical substance/The level of expressed mRNA in the absence of chemical substance: 1.1
Yeast gene YCR067C
  The level of expressed mRNA in the presence of chemical substance/The level of expressed mRNA in the absence of chemical substance: 0.9
Yeast gene YCR071C
  The level of expressed mRNA in the presence of chemical substance/The level of expressed mRNA in the absence of chemical substance: 1.3
Yeast gene YCR088W
  The level of expressed mRNA in the presence of chemical substance/The level of expressed mRNA in the absence of chemical substance: 0.9
Yeast gene YCR106W
  The level of expressed mRNA in the presence of chemical substance/The level of expressed mRNA in the absence of chemical substance: 1.2
Yeast gene YDL008W
  The level of expressed mRNA in the presence of chemical substance/The level of expressed mRNA in the absence of chemical substance: 1.6
Yeast gene YDL065C
  The level of expressed mRNA in the presence of chemical substance/The level of expressed mRNA in the absence of chemical substance: 1.2
Yeast gene YDL192W
  The level of expressed mRNA in the presence of chemical substance/The level of expressed mRNA in the absence of chemical substance: 2.3
Yeast gene YDL220C
  The level of expressed mRNA in the presence of chemical substance/The level of expressed mRNA in the absence of chemical substance: 0.9
Yeast gene YDL230W
  The level of expressed mRNA in the presence of chemical substance/The level of expressed mRNA in the absence of chemical substance: 1.2
Yeast gene YDL238C
  The level of expressed mRNA in the presence of chemical substance/The level of expressed mRNA in the absence of chemical substance: 1.3
Yeast gene YDR022C
  The level of expressed mRNA in the presence of chemical substance/The level of expressed mRNA in the absence of chemical substance: 1.2
Yeast gene YDR041W
  The level of expressed mRNA in the presence of chemical substance/The level of expressed mRNA in the absence of chemical substance: 2.5
Yeast gene YDR055W
  The level of expressed mRNA in the presence of chemical substance/The level of expressed mRNA in the absence of chemical substance: 1.9
Yeast gene YDR084C
  The level of expressed mRNA in the presence of chemical substance/The level of expressed mRNA in the absence of chemical substance: 1.3
Yeast gene YDR085C
  The level of expressed mRNA in the presence of chemical substance/The level of expressed mRNA in the absence of chemical substance: 1.8
Yeast gene YDR104C
  The level of expressed mRNA in the presence of chemical substance/The level of expressed mRNA in the absence of chemical substance: 1.0
Yeast gene YDR115W
  The level of expressed mRNA in the presence of chemical substance/The level of expressed mRNA in the absence of chemical substance: 1.4
Yeast gene YDR125C
  The level of expressed mRNA in the presence of chemical substance/The level of expressed mRNA in the absence of chemical substance: 1.2
Yeast gene YDR168W
  The level of expressed mRNA in the presence of chemical substance/The level of expressed mRNA in the absence of chemical substance: 1.4
Yeast gene YDR169C
  The level of expressed mRNA in the presence of chemical substance/The level of expressed mRNA in the absence of chemical substance: 1.1
Yeast gene YDR181C
  The level of expressed mRNA in the presence of chemical substance/The level of expressed mRNA in the absence of chemical substance: 1.2
Yeast gene YDR188W
  The level of expressed mRNA in the presence of chemical substance/The level of expressed mRNA in the absence of chemical substance: 0.8
Yeast gene YDR259C
  The level of expressed mRNA in the presence of chemical substance/The level of expressed mRNA in the absence of chemical substance: 0.8
Yeast gene YDR264C
  The level of expressed mRNA in the presence of chemical substance/The level of expressed mRNA in the absence of chemical substance: 1.4
Yeast gene YDR315C
  The level of expressed mRNA in the presence of chemical substance/The level of expressed mRNA in the absence of chemical substance: 1.2
Yeast gene YDR358W
  The level of expressed mRNA in the presence of chemical substance/The level of expressed mRNA in the absence of chemical substance: 1.9
Yeast gene YDR373W
  The level of expressed mRNA in the presence of chemical substance/The level of expressed mRNA in the absence of chemical substance: 1.6
Yeast gene YDR388W
  The level of expressed mRNA in the presence of chemical substance/The level of expressed mRNA in the absence of chemical substance: 1.3
